From US6900200B2, “Tricyclic hydroxy carboxamides and derivatives thereof tocolytic oxytocin receptor antagonists” (Wyeth, priority 2001, dated 2005) come the findings set out here.

Each structure is given as a SMILES string.

The target of this assay is T1, human oxytocin receptor (Homo sapiens, UniProt P30559).
T1 construct: host or cells: CHO cells, pcDNA3.1 vector
T1 sequence (P30559 1-389): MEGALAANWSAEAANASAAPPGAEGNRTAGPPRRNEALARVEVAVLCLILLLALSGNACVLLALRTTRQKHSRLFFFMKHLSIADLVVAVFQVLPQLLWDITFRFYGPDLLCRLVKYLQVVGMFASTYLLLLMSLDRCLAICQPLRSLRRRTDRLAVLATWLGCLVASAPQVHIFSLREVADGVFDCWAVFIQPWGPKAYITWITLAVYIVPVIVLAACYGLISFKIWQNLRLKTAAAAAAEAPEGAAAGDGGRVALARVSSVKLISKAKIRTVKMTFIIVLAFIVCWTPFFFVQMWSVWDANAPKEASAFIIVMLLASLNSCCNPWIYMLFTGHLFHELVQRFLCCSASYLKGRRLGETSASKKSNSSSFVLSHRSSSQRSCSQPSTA
As to the kind of experiment: Oxytocin binding in CHO cell membranes expressing human oxytocin receptors ([3H]oxytocin radioligand binding). Particulars: for IC50: value printed in parentheses, read-out: OT (IC50); for inhibition at 0.1 µM: @ 100 nM, read-out: OT % inhibition @ 100 nM. An excerpt: Oxytocin Binding in Chinese Hamster Ovary Cell Membranes Expressing Human Oxytocin Receptors
Chinese Hamster Ovary (CHO) cells stably transfected with the human oxytocin receptor (cf. Tanizawa et al., U.S. Pat. No. 5,466,584 (1995) to Rohto Pharmaceutical Co. Ltd., Osaka, Japan) were obtained from M. Thibonnier, Case Western Reserve University School of Medicine, Cleveland, Ohio.
A. Passaging and Amplification of Cells
CHO cells transfected with the human oxytocin receptors obtained from M. Thibonnier (pcDNA3.1 vector) are allowed to grow to confluency (approx. >90%) in T-150 flasks under sterile conditions, in a cell culture medium of F-12 Nutrient Mixture (HAM) with L-glutamine (Gibco Cat. #11765-054) containing 15 mM HEPES (Gibco Cat. #15630-080), 1% antibiotic/antimycotic (add 5 mL 100×, Gibco Cat. #15240-062 per 500 mL F-12), 400 μg/mL of Geneticin (add 4 mL of 50 mg/mL per 500 mL F-12) and 10% Fetal Bovine Serum (Qualified, heat inactivated, Gibco Cat. #16140-063). The medium is removed by aspiration and the cells are washed with 10 mL of Hank's Balanced Salt solution (Gibco Cat. #14175-095). The salt solution is removed by aspiration and the cells trypsinized with 5 mL of trypsin-EDTA (0.05% trypsin, 0.53 mM EDTA-4Na, Gibco Cat. #25300-070) for 1 min. The trypsin is removed by aspiration and the cells dislodged by tapping. Cell Culture medium (e.g. 30 mL for 1:30 split) is immediately added and mixed well to inactivate trypsin. 1 mL of detached cells is added to new culture flasks containing fresh Cell Culture medium (e.g. into 25 mL per T-150 flask), and mixed gently. The cells are incubated at 37° C. in 5% CO2. The medium is changed at 3 to 4 days interval (or as appropriate). The cells grow to confluency (approx. >75%-95%) within 7-8 days. All steps are done under sterile conditions.
The cells are washed twice gently with Hank's Balanced Salt solution (e.g., use 10 mL per T-1 50 flask). The excess solution is removed and the cells bathed for 15-30 min. in an enzyme-free Cell Dissociation Buffer (e.g., use 8 mL Hank's Based, Gibco Cat. #13150-016 per T-150 flask) until cells are loosened. The contents are transferred to centrifuge tubes (50 mL size) kept in ice bath. All subsequent steps are done at 4° C. The tubes are centrifuged at 300×g for 15 min (1380 rpm on SORVAL, Model RT6000D, using rotor for 50 mL tubes). The supernatant is discarded and the cells suspended in homogenizing buffer (10 mM Tris-HCl containing 0.25 M sucrose and 1 mM EDTA, pH 7.4) ensuring that the volume of the buffer is about ten times the volume of the cell pellet. The cells are pooled into a centrifuge tube (50 mL) and homogenized with a Polytron at setting 6 for 10 sec. The homogenate is transferred into a Potter-Elvjehm homogenizer and homogenized with 3 strokes. The homogenate is centrifuged at 1500×g for 10 min at 4° C. (3100 rpm using SORVAL, model RT6000D, using rotor for 50 mL tubes). The pellet is discarded. The supernatant is centrifuged at 100,000×g for 60 min. at 4° C. (Beckman L8-80M ultracentrifuge; spin at 37,500 rpm with rotor type 70 Ti for 50 mL tubes; 38,000 rpm with type 80Ti for 15 mL tubes; or 35,800 rpm with rotor type 45Ti). The supernantant is discarded and the pellet suspended in 3 to 4 mL of Tris buffer (50 mM TRIS—HCl, pH 7.4). The protein content is estimated by the Bradford or Lowry method. The volume of the membrane suspension is adjusted with the membrane buffer (50 mM Tris-HCl containing 0.1% BSA and 0.1 mM PMSF) to give 3.0 mg/mL (or as appropriate) of protein. The membranes are aliquoted and stored at −70° C.
C. Radioligand Binding Assay
In wells of a 96-well format microtiter plate, is added 90, 110 or 130 μL (to make up a final volume of 200 μL) of assay buffer containing 50 mM of Tris-HCl (pH 7.4), […], 1 mg % aprotinin, 1 mg % leupeptin, 2 mg % 1,10-phenanthroline, 10 mg % trypsin inhibitor, and 0.1 mM PMSF. […]

Usually IC50 stands for the concentration that inhibits the measured activity by half. For the molecule `COC[C@H](O)CN1CCN(C(=O)c2ccc3n2Cc2ccccc2N(C(=O)c2ccc(-c4ccccc4C(F)(F)F)c(C)c2)C3)CC1` [Example 8, (2R)-1-Methoxy-3-{4-[(10-{[2-methyl-2′-trifluoromethyl-[1,1′-biphenyl]-4-yl]carbonyl}-10,11-dihydro-5H-pyrrolo[2,1-c][1,4]benzodiazepin-3-yl)carbonyl]piperazin-1-yl}propan-2-ol], the IC50 amounted to 0.00755 µM.
As usually defined, the inhibition is the relative decrease from the control value, in per cent. Take `Cc1ccccc1-c1ccc(C(=O)N2Cc3ccc(C(=O)N4CCN(CCO)CC4)n3Cc3ccccc32)cc1C` [Example 46, {10-[(2,2′-Dimethyl[1,1′-biphenyl]-4-yl)carbonyl]-10,11-dihydro-5H-pyrrolo[2,1-c][1,4]benzodiazepin-3-yl}[4-(2-hydroxyethyl)-1-piperazinyl]methanone]: the inhibition at 0.1 µM worked out at 97%.
For `Cc1cc(C(=O)N2Cc3ccc(C(=O)N(C)CC4COC(=O)O4)n3Cc3ccccc32)ccc1-c1ccccc1C(F)(F)F` (stereo not shown) [Example 11, 10-[(2-Methyl-2′-trifluoromethyl-[1,1′-biphenyl]-4-yl)carbonyl]-10,11-dihydro-5H-pyrrolo[2,1-c][1,4]benzodiazepine-3-carboxylic acid methyl-[(2-oxo-[1,3]dioxolan-4-yl)methyl]-amide], the IC50 was 0.00366 µM.
For the molecule `Cc1cc(C(=O)N2Cc3ccc(C(=O)N4CCN(CCO)CC4)n3Cc3ccccc32)ccc1-c1ccccc1C(F)(F)F` [Example 48, [4-(2-Hydroxyethyl)-1-piperazinyl](10-{[2-methyl-2′-(trifluoromethyl)[1,1′-biphenyl]-4-yl)carbonyl}-10,11-dihydro-5H-pyrrolo[2,1-c][1,4]benzodiazepin-3-yl)methanone], the inhibition at 0.1 µM came out at 79%.
As for `Cc1ccccc1-c1ccc(C(=O)N2Cc3ccc(C(=O)N4CCN(CCO)CC4)n3Cc3ccccc32)cc1` [Example 45, [4-(2-Hydroxyethyl)-1-piperazinyl]{10-[(2′-methyl[1,1′-biphenyl]-4-yl)carbonyl]-10,11-dihydro-5H-pyrrolo[2,1-c][1,4]benzodiazepin-3-yl}methanone], the inhibition at 0.1 µM came to 87%.
As for `COc1ccccc1-c1ccc(C(=O)N2Cc3ccc(C(=O)N4CCN(CCO)CC4)n3Cc3ccccc32)cc1` [Example 47, [4-(2-Hydroxyethyl)-1-piperazinyl]{10-[(2′-methoxy[1,1′-biphenyl]-4-yl)carbonyl]-10,11-dihydro-5H-pyrrolo[2,1-c][1,4]benzodiazepin-3-yl}methanone], the inhibition at 0.1 µM turned out to be 55%.
With `COc1cc(C(=O)N2Cc3ccc(C(=O)N4CCN(CCO)CC4)n3Cc3ccccc32)ccc1-c1ccccc1C` [Example 42, [4-(2-Hydroxyethyl)-1-piperazinyl]{10-[(2-methoxy-2′-methyl[1,1′-biphenyl]-4yl)carbonyl]-10,11-dihydro-5H-pyrrolo[2,1-c][1,4]benzodiazepin-3-yl}methanone], the inhibition at 0.1 µM worked out at 89%.
For `Cc1ccc(-c2ccc(C(=O)N3Cc4ccc(C(=O)N(C)CC(O)CO)n4Cc4ccccc43)cc2)c2ccccc12` (stereo not shown) [Example 26, 10-{[4-(4-Methyl-naphthalen-1-yl)phenyl]carbonyl}-10,11-dihydro-5H-pyrrolo[2,1-c][1,4]benzodiazepine-3-carboxylic acid (2,3-dihydroxy-propyl)-N-methylamide], the IC50 stood at 0.0558 µM.
Still for that read-out and setting: the same measure for `COCCN1CCN(C(=O)c2ccc3n2Cc2ccccc2N(C(=O)c2ccc(-c4ccccc4C(F)(F)F)c(C)c2)C3)CC1` [Example 7, Methyl 2-{4-[(10-{[2-methyl-2′-trifluoromethyl-[1,1′-biphenyl]-4-yl]carbonyl}-10,11-dihydro-5H-pyrrolo[2,1-c][1,4]benzodiazepin-3-yl)carbonyl]piperazin-1-yl}ethyl ether]: 0.0307 µM.
For `COc1cc2c(cc1OC)N(C(=O)c1ccc(-c3ccccc3C(F)(F)F)c(C)c1)Cc1ccc(C(=O)N(CCO)CCO)n1C2` [Example 19, N,N-Bis(2-Hydroxyethyl)-7,8-dimethoxy-10-{[2-methyl-2′-trifluoromethyl-[1,1′-biphenyl]-4-yl]carbonyl}-10,11-dihydro-5H-pyrrolo[2,1-c][1,4]benzodiazepine-3-carboxamide], the inhibition at 0.1 µM was 27%.
